Experimental data as given in patent US8420657B2 (Novartis AG, priority 2008, dated 2013).

molecular target: T1, GST-JAK2(808-1132) (Homo sapiens, UniProt O60674); assay: JAK2 kinase assay (Caliper mobility shift, LabChip 3000); type: biochemical
T1 construct: GST-JAK2(808-1132); purchased Invitrogen (Carlsbad, USA) #4288
Method in brief: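 Recombinant GST-JAK2(808-1132) kinase domain with FITC-labelled JAK3tide peptide substrate and ATP; 60 min at 30 °C, EDTA stop. Substrate/product ratio read by microfluidic mobility shift; compounds at 8 final concentrations, 10 to 0.003 μM.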

T1 sequence (O60674 808-1132): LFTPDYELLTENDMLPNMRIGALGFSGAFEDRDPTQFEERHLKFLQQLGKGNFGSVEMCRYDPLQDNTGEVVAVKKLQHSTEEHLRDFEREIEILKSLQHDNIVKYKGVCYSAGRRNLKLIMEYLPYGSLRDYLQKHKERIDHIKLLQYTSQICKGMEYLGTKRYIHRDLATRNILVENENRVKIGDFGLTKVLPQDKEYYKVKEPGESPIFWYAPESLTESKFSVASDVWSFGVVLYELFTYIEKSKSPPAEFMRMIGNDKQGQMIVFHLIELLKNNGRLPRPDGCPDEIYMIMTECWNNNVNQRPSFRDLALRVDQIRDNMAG

| Structure (SMILES) | IC50 [nM] |
| --- | --- |
| Fc1cc(-n2ccc3cnc(Nc4ccc(CN5CCN(C6CC6)CC5)cc4)nc32)cc(F)c1CN1CCOCC1 [Example 329, [4-(4-Cyclopropyl-piperazin-1-ylmethyl)-phenyl]-[7-(3,5-difluoro-4-morpholin-4-ylmethyl-phenyl)-7H-pyrrolo[2,3-d]pyrimidin-2-yl]-amine] | 4 |
| O=C(c1ccc(-n2ccc3cnc(Nc4ccc(CN5CCN(C6CC6)CC5)cc4)nc32)cc1F)N1CCOCC1 [Example 330, (4-{2-[4-(4-Cyclopropyl-piperazin-1-ylmethyl)-phenylamino]-pyrrolo[2,3-d]pyrimidin-7-yl}-2-fluoro-phenyl)-morpholin-4-yl-methanone] | 14 |
| CN1CCN(c2ccc(Nc3ncc4ccn(-c5cc(F)c(CN6CCNC(=O)C6)c(F)c5)c4n3)cc2)CC1 [Example 341, 4-(2,6-Difluoro-4-{2-[4-(4-methyl-piperazin-1-yl)-phenylamino]-pyrrolo[2,3-d]pyrimidin-7-yl}-benzyl)-piperazin-2-one] | ≤ 3 |
| Cc1ccc(Nc2ncc3ccn(-c4cc(F)c(CN5CCNC(=O)C5)c(F)c4)c3n2)cc1CN1CCOCC1 [Example 344, 4-{2,6-Difluoro-4-[2-(4-methyl-3-morpholin-4-ylmethyl-phenylamino)-pyrrolo[2,3-d]pyrimidin-7-yl]-benzyl}-piperazin-2-one] | ≤ 3 |
| CC(C)(C)NS(=O)(=O)c1ccc(-n2ccc3cnc(Nc4ccc(CN5CCN(C6CC6)CC5)cc4)nc32)cc1 [Example 345, N-tert-Butyl-4-{2-[4-(4-cyclopropyl-piperazin-1-ylmethyl)-phenylamino]-pyrrolo[2,3-d]pyrimidin-7-yl}-benzenesulfonamide] | 3.3 |
| CN1CCN(c2ccc(Nc3ncc4ccn(-c5ccc(S(=O)(=O)NC(C)(C)C)cc5)c4n3)cc2)CC1 [Example 348, N-tert-Butyl-4-{2-[4-(4-methyl-piperazin-1-yl)-phenylamino]-pyrrolo[2,3-d]pyrimidin-7-yl}-benzenesulfonamide] | 6.2 |
| CN1CCN(c2ccc(Nc3ncc4ccn(-c5ccc(S(N)(=O)=O)cc5)c4n3)cc2)CC1 [Example 349, 4-{2-[4-(4-Methyl-piperazin-1-yl)-phenylamino]-pyrrolo[2,3-d]pyrimidin-7-yl}-benzenesulfonamide] | 16 |
| Cc1ccc(Nc2ncc3ccn(-c4ccc(S(N)(=O)=O)cc4)c3n2)cc1CN1CCN(C)CC1 [Example 368, 4-{2-[4-Methyl-3-(4-methyl-piperazin-1-ylmethyl)-phenylamino]-pyrrolo[2,3-d]pyrimidin-7-yl}-benzenesulfonamide] | 3.2 |
| Cc1ccc(Nc2ncc3ccn(-c4cc(F)c(CN5CCOCC5)c(F)c4)c3n2)cc1CN1CCNC2(CC2)C1 [Example 373, [3-(4,7-Diaza-spiro[2.5]oct-7-ylmethyl)-4-methyl-phenyl]-[7-(3,5-difluoro-4-morpholin-4-ylmethyl-phenyl)-7H-pyrrolo[2,3-d]pyrimidin-2-yl]-amine] | 4.3 |
| Cc1ccc(Nc2ncc3ccn(-c4ccc(C(=O)N5CCOCC5)c(F)c4)c3n2)cc1CN1CCNC2(CC2)C1 [Example 374, (4-{2-[3-(4,7-Diaza-spiro[2.5]oct-7-ylmethyl)-4-methyl-phenylamino]-pyrrolo[2,3-d]pyrimidin-7-yl}-2-fluoro-phenyl)-morpholin-4-yl-methanone] | 9.9 |
| O=C1NC(c2ccc(Nc3ncc4ccn(-c5cc(F)c(CN6CCOCC6)c(F)c5)c4n3)cc2)CN2CCCCC12 (stereo not shown) [Example 389, 3-{4-[7-(3,5-Difluoro-4-morpholin-4-ylmethyl-phenyl)-7H-pyrrolo[2,3-d]pyrimidin-2-ylamino]-phenyl}-hexahydro-pyrido[1,2-a]pyrazin-1-one] | ≤ 3 |
| Cc1ccc(Nc2ncc3ccn(-c4cc(F)c(CN5CCOCC5)c(F)c4)c3n2)cc1COC1CNC1 [Example 420, [3-(Azetidin-3-yloxymethyl)-4-methyl-phenyl]-[7-(3,5-difluoro-4-morpholin-4-ylmethyl-phenyl)-7H-pyrrolo[2,3-d]pyrimidin-2-yl]-amine] | ≤ 3 |
| Cc1ccc(Nc2ncc3ccn(-c4ccc(C(=O)N5CCOCC5)cc4)c3n2)cc1CN1CCN(C)CC1 [Example 437, (4-{2-[4-Methyl-3-(4-methyl-piperazin-1-ylmethyl)-phenylamino]-pyrrolo[2,3-d]pyrimidin-7-yl}-phenyl)-morpholin-4-yl-methanone] | 3.3 |
| CCc1ccc(-n2ccc3cnc(Nc4ccc(N5CCN(C)CC5)nc4)nc32)cc1 [Example 438, [7-(4-Ethyl-phenyl)-7H-pyrrolo[2,3-d]pyrimidin-2-yl]-[6-(4-methyl-piperazin-1-yl)-pyridin-3-yl]-amine] | ≤ 3 |
| Cc1cc(C#N)ccc1-n1ccc2cnc(Nc3ccc(N4CCN(C)CC4)nc3)nc21 [Example 439, 3-Methyl-4-{2-[6-(4-methyl-piperazin-1-yl)-pyridin-3-ylamino]-pyrrolo[2,3-d]pyrimidin-7-yl}-benzonitrile] | 19 |
| O=S1(=O)CCN(Cc2c(F)cc(-n3ccc4cnc(Nc5ccnc(N6CCNC7(CC7)C6)c5)nc43)cc2F)CC1 [Example 442] | ≤ 3 |
| CN1CCN(c2ccc(Nc3ncc4ccn(-c5cc(F)c(C#N)c(F)c5)c4n3)cn2)CC1 [Example 445, 2,6-Difluoro-4-{2-[6-(4-methyl-piperazin-1-yl)-pyridin-3-ylamino]-pyrrolo[2,3-d]pyrimidin-7-yl}-benzonitrile] | 43 |
| Cc1ccc(Nc2ncc3ccn(-c4cc(F)c(CN5CCOCC5)c(F)c4)c3n2)cc1CN1CCC2(CCN(C)C2)C1 (stereo not shown) [Example 450, [7-(3,5-Difluoro-4-morpholin-4-ylmethyl-phenyl)-7H-pyrrolo[2,3-d]pyrimidin-2-yl]-[4-methyl-3-(7-methyl-2,7-diaza-spiro[4.4]non-2-ylmethyl)-phenyl]-amine] | ≤ 3 |
| Cc1cc(Nc2ncc3ccn(-c4cc(F)c(CN5CCOCC5)c(F)c4)c3n2)ccc1CN1CCNCC1 [Example 460, [7-(3,5-Difluoro-4-morpholin-4-ylmethyl-phenyl)-7H-pyrrolo[2,3-d]pyrimidin-2-yl]-(3-methyl-4-piperazin-1-ylmethyl-phenyl)-amine] | ≤ 3 |
| Cc1cc(Nc2ncc3ccn(-c4cc(F)c(CN5CCOCC5)c(F)c4)c3n2)ccc1CN1C[C@@H](C)N[C@@H](C)C1 [Example 461, [7-(3,5-Difluoro-4-morpholin-4-ylmethyl-phenyl)-7H-pyrrolo[2,3-d]pyrimidin-2-yl]-[4-(cis-3,5-dimethyl-piperazin-1-ylmethyl)-3-methyl-phenyl]-amine] | ≤ 3 |
| Cc1ccc(Nc2ncc3ccn(-c4cc(F)c(CN5CCOCC5)c(F)c4)c3n2)cc1Cn1cc(CCO)cn1 [Example 467, 2-(1-{5-[7-(3,5-Difluoro-4-morpholin-4-ylmethyl-phenyl)-7H-pyrrolo[2,3-d]pyrimidin-2-ylamino]-2-methyl-benzyl}-1H-pyrazol-4-yl)-ethanol] | 4.6 |
| Cc1cnn(Cc2cc(Nc3ncc4ccn(-c5cc(F)c(CN6CCOCC6)c(F)c5)c4n3)ccc2C)c1 [Example 481, [7-(3,5-Difluoro-4-morpholin-4-ylmethyl-phenyl)-7H-pyrrolo[2,3-d]pyrimidin-2-yl]-[4-methyl-3-(4-methyl-pyrazol-1-ylmethyl)-phenyl]-amine] | 5.1 |
